From US9447038B2 (SANOFI, priority 2012, dated 2016)
Where a name gives a salt, the structure may show the parent alone.

Biological target: human CXCR3-A receptor (Homo sapiens (Human), UniProt P49682)
Assay: 125I-CXCL10 competition radioligand binding assay;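 note: One-hour incubation of membranes with tracer, bound radioligand separated by glass fibre filtration, IC50 derived from four-parameter nonlinear fit of competition curves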
Conditions: displacement of 125I-CXCL10 from membranes of CHO cells expressing human recombinant CXCR3-A

human CXCR3-A receptor, sequence (P49682 whole entry): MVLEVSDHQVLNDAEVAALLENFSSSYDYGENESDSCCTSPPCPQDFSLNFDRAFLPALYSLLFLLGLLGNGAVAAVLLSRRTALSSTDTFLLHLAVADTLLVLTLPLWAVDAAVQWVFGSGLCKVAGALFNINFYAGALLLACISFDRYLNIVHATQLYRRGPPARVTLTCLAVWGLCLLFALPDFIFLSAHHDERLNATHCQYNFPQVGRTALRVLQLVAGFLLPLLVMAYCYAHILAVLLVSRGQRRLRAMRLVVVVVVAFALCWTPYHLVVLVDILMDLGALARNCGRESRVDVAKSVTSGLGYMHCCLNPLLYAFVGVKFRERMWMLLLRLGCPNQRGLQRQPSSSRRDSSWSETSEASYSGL

## CCc1cc(CN(CC(C)C)C(CC(=O)O)c2ccc(Cl)c(Cl)c2)ccc1OCCN1C(=O)CCC1=O (stereo not drawn) [Example 98, 3-(3,4-Dichloro-phenyl)-3-({4-[2-(2,5-dioxo-pyrrolidin-1-yl)-ethoxy]-3-ethyl-benzyl}-isobutyl-amino)-propionic acid]
  IC50: 130 nM

## CCCCN(Cc1ccc(OCCN2C(=O)CCC2=O)c(CC)c1)C(CC(=O)O)c1ccc(Cl)c(Cl)c1 (stereo not drawn) [Example 99, 3-(Butyl-{4-[2-(2,5-dioxo-pyrrolidin-1-yl)-ethoxy]-3-ethyl-benzyl}-amino)-3-(3,4-dichloro-phenyl)-propionic acid]
  IC50: 120 nM

## CCc1cc(CN(CC2CCCC2)C(CC(=O)O)c2ccc(Cl)c(Cl)c2)ccc1OCCN1C(=O)CCC1=O (stereo not drawn) [Example 100, 3-(Cyclopentylmethyl-{4-[2-(2,5-dioxo-pyrrolidin-1-yl)-ethoxy]-3-ethyl-benzyl}-amino)-3-(3,4-dichloro-phenyl)-propionic acid]
  IC50: 464 nM

## CCc1cc(CN(CC2CCCCC2)C(CC(=O)O)c2ccc(Cl)c(Cl)c2)ccc1OCCN1C(=O)CCC1=O (stereo not drawn) [Example 101, 3-(Cyclohexylmethyl-{4-[2-(2,5-dioxo-pyrrolidin-1-yl)-ethoxy]-3-ethyl-benzyl}-amino)-3-(3,4-dichloro-phenyl)-propionic acid]
  IC50: 292 nM

## O=C(O)CC(c1ccc(Cl)cc1)N(Cc1ccc(OCCN2C(=O)CCC2=O)c(Cl)c1)CC1CC1 (stereo not drawn) [Example 102, 3-({3-Chloro-4-[2-(2,5-dioxo-pyrrolidin-1-yl)-ethoxy]-benzyl}-cyclopropylmethyl-amino)-3-(4-chloro-phenyl)-propionic acid; hydrochloride]
  IC50: 83 nM

## CCCN(Cc1ccc(OCCN2C(=O)CCC2=O)c(Cl)c1)C(CC(=O)O)c1ccc(Cl)cc1 (stereo not drawn) [Example 103, 3-({3-Chloro-4-[2-(2,5-dioxo-pyrrolidin-1-yl)-ethoxy]-benzyl}-propyl-amino)-3-(4-chloro-phenyl)-propionic acid]
  IC50: 170 nM

## O=C(O)C[C@@H](c1ccc(Cl)cc1)N(Cc1ccc(OCCN2C(=O)CCC2=O)c(Cl)c1)CC1CCC1 [Example 104, (S)-3-({3-Chloro-4-[2-(2,5-dioxo-pyrrolidin-1-yl)-ethoxy]-benzyl}-cyclobutylmethyl-amino)-3-(4-chloro-phenyl)-propionic acid]
  IC50: 145 nM

## CCCN(Cc1ccc(OCCN2C(=O)CCC2=O)c(Cl)c1)C(CC(=O)O)c1ccc(Cl)c(F)c1 (stereo not drawn) [Example 105, 3-({3-Chloro-4-[2-(2,5-dioxo-pyrrolidin-1-yl)-ethoxy]-benzyl}-propyl-amino)-3-(4-chloro-3-fluoro-phenyl)-propionic acid]
  IC50: 211 nM

## O=C(O)CC(c1ccc(Cl)c(Cl)c1)N(Cc1ccc(OCCN2C(=O)CCC2=O)c(Cl)c1)CC1CC1 (stereo not drawn) [Example 106, 3-({3-Chloro-4-[2-(2,5-dioxo-pyrrolidin-1-yl)-ethoxy]-benzyl}-cyclopropylmethyl-amino)-3-(3,4-dichloro-phenyl)-propionic acid; hydrochloride]
  IC50: 223 nM

## CCCN(Cc1ccc(OCCN2C(=O)CCC2=O)c(Cl)c1)C(CC(=O)O)c1ccc(Cl)c(Cl)c1 (stereo not drawn) [Example 107, 3-({3-Chloro-4-[2-(2,5-dioxo-pyrrolidin-1-yl)-ethoxy]-benzyl}-propyl-amino)-3-(3,4-dichloro-phenyl)-propionic acid]
  IC50: 570 nM

## COc1cc(CN(CC2CC2)[C@H](C(=O)O)c2ccc(Cl)c(Cl)c2)ccc1OCCN1C(=O)CCC1=O [Example 108, (S)-(Cyclopropylmethyl-{4-[2-(2,5-dioxo-pyrrolidin-1-yl)-ethoxy]-3-methoxy-benzyl}-amino)-(3,4-dichloro-phenyl)-acetic acid]
  IC50: 200 nM

## COc1cc(CN(CC(C)C)[C@@H](C(=O)O)c2ccc(Cl)c(Cl)c2)ccc1OCCN1C(=O)CCC1=O [Example 110, (R)-(3,4-Dichloro-phenyl)-({4-[2-(2,5-dioxo-pyrrolidin-1-yl)-ethoxy]-3-methoxy-benzyl}-isobutyl-amino)-acetic acid]
  IC50: 786 nM

## COc1cc(CN(CC2CC2)[C@@H](C(=O)O)c2ccc(Cl)c(Cl)c2)ccc1OCCN1C(=O)CCC1=O [Example 111, (R)-(Cyclopropylmethyl-{4-[2-(2,5-dioxo-pyrrolidin-1-yl)-ethoxy]-3-methoxy-benzyl}-amino)-(3,4-dichloro-phenyl)-acetic acid]
  IC50: 420 nM

## COc1cc(CN(CC2CC2)C(CC(=O)O)c2ccc(Cl)c(Cl)c2)ccc1OCCn1c(=O)ccn(C)c1=O (stereo not drawn) [Example 124, 3-(Cyclopropylmethyl-{3-methoxy-4-[2-(3-methyl-2,6-dioxo-3,6-dihydro-2H-pyrimidin-1-yl)-ethoxy]-benzyl}-amino)-3-(3,4-dichloro-phenyl)-propionic acid]
  IC50: 30 nM

## CCCN(Cc1ccc(OCCn2c(=O)ccn(C)c2=O)c(OC)c1)C(CC(=O)O)c1ccc(Cl)c(Cl)c1 (stereo not drawn) [Example 125, 3-(3,4-Dichloro-phenyl)-3-({3-methoxy-4-[2-(3-methyl-2,6-dioxo-3,6-dihydro-2H-pyrimidin-1-yl)-ethoxy]-benzyl}-propyl-amino)-propionic acid]
  IC50: 72 nM

## CCN(Cc1ccc(OCCn2c(=O)ccn(C)c2=O)c(OC)c1)C(CC(=O)O)c1ccc(Cl)c(Cl)c1 (stereo not drawn) [Example 126, 3-(3,4-Dichloro-phenyl)-3-(ethyl-{3-methoxy-4-[2-(3-methyl-2,6-dioxo-3,6-dihydro-2H-pyrimidin-1-yl)-ethoxy]-benzyl}-amino)-propionic acid]
  IC50: 310 nM

## COc1cc(CN(CC2CCCC2)C(CC(=O)O)c2ccc3c(c2)CCO3)ccc1OCCn1c(=O)ccn(C)c1=O (stereo not drawn) [Example 127, 3-(Cyclopentylmethyl-{3-methoxy-4-[2-(3-methyl-2,6-dioxo-3,6-dihydro-2H-pyrimidin-1-yl)-ethoxy]-benzyl}-amino)-3-(2,3-dihydro-benzofuran-5-yl)-propionic acid]
  IC50: 38 nM

## COc1cc(CN(CC2CCCCC2)C(CC(=O)O)c2ccc3c(c2)CCO3)ccc1OCCn1c(=O)ccn(C)c1=O (stereo not drawn) [Example 128, 3-(Cyclohexylmethyl-{3-methoxy-4-[2-(3-methyl-2,6-dioxo-3,6-dihydro-2H-pyrimidin-1-yl)-ethoxy]-benzyl}-amino)-3-(2,3-dihydro-benzofuran-5-yl)-propionic acid]
  IC50: 118 nM

## Cc1cc(CN(CCC(F)(F)F)C(CC(=O)O)c2ccc(Cl)cc2)ccc1OCCn1c(=O)ccn(C)c1=O (stereo not drawn) [Example 129, 3-(4-Chloro-phenyl)-3-[{3-methyl-4-[2-(3-methyl-2,6-dioxo-3,6-dihydro-2H-pyrimidin-1-yl)-ethoxy]-benzyl}-(3,3,3-trifluoro-propyl)-amino]-propionic acid]
  IC50: 2150 nM

## COc1cc(CN(CCC(F)(F)F)C(CC(=O)O)c2ccc(Cl)cc2)ccc1OCCn1c(=O)ccn(C)c1=O (stereo not drawn) [Example 130, 3-(4-Chloro-phenyl)-3-[{3-methoxy-4-[2-(3-methyl-2,6-dioxo-3,6-dihydro-2H-pyrimidin-1-yl)-ethoxy]-benzyl}-(3,3,3-trifluoro-propyl)-amino]-propionic acid]
  IC50: 1250 nM

## Cc1cc(CN(CC2CC2)C(CC(=O)O)c2ccc3c(c2)CCO3)ccc1OCCn1c(=O)ccn(C)c1=O (stereo not drawn) [Example 131, 3-(Cyclopropylmethyl-{3-methyl-4-[2-(3-methyl-2,6-dioxo-3,6-dihydro-2H-pyrimidin-1-yl)-ethoxy]-benzyl}-amino)-3-(2,3-dihydro-benzofuran-5-yl)-propionic acid]
  IC50: 42 nM

## COc1cc(CN(CC2CC2)C(CC(=O)O)c2ccc(Cl)cc2)ccc1CCCN1C(=O)CCC1=O (stereo not drawn) [Example 132, 3-(4-Chloro-phenyl)-3-(cyclopropylmethyl-{4-[3-(2,5-dioxo-pyrrolidin-1-yl)-propyl]-3-methoxy-benzyl}-amino)-propionic acid]
  IC50: 192 nM

## CCCN(Cc1ccc(CCCN2C(=O)CCC2=O)c(OC)c1)C(CC(=O)O)c1ccc(Cl)cc1 (stereo not drawn) [Example 133, 3-(4-Chloro-phenyl)-3-({4-[3-(2,5-dioxo-pyrrolidin-1-yl)-propyl]-3-methoxy-benzyl}-propyl-amino)-propionic acid]
  IC50: 177 nM

## COc1cc(CN(CC(C)C)C(CC(=O)O)c2ccc(Cl)cc2)ccc1CCCN1C(=O)CCC1=O (stereo not drawn) [Example 134, 3-(4-Chloro-phenyl)-3-({4-[3-(2,5-dioxo-pyrrolidin-1-yl)-propyl]-3-methoxy-benzyl}-isobutyl-amino)-propionic acid]
  IC50: 296 nM

## CCCCN(Cc1ccc(CCCN2C(=O)CCC2=O)c(OC)c1)C(CC(=O)O)c1ccc(Cl)cc1 (stereo not drawn) [Example 135, 3-(Butyl-{4-[3-(2,5-dioxo-pyrrolidin-1-yl)-propyl]-3-methoxy-benzyl}-amino)-3-(4-chloro-phenyl)-propionic acid]
  IC50: 116 nM

## Cc1cc(CN(CC(C)C)C(CC(=O)O)c2ccc(Cl)cc2)ccc1CCCN1C(=O)CCC1=O (stereo not drawn) [Example 137, 3-(4-Chloro-phenyl)-3-({4-[3-(2,5-dioxo-pyrrolidin-1-yl)-propyl]-3-methyl-benzyl}-isobutyl-amino)-propionic acid]
  IC50: 240 nM

## COc1cc(CN(C2CCC2)C(CC(=O)O)c2ccc(Cl)cc2)ccc1CCCN1C(=O)CCC1=O (stereo not drawn) [Example 138, 3-(4-Chloro-phenyl)-3-(cyclobutyl-{4-[3-(2,5-dioxo-pyrrolidin-1-yl)-propyl]-3-methoxy-benzyl}-amino)-propionic acid]
  IC50: 190 nM

## COc1cc(CN(CC2CCCC2)C(CC(=O)O)c2ccc3c(c2)CCO3)ccc1CCCN1C(=O)CCC1=O (stereo not drawn) [Example 139, 3-(Cyclopentylmethyl-{4-[3-(2,5-dioxo-pyrrolidin-1-yl)-propyl]-3-methoxy-benzyl}-amino)-3-(2,3-dihydro-benzofuran-5-yl)-propionic acid]
  IC50: 54 nM

## CCCCN(Cc1ccc(CCCN2C(=O)CCC2=O)c(OC)c1)C(CC(=O)O)c1ccc2c(c1)CCO2 (stereo not drawn) [Example 140, 3-(Butyl-{4-[3-(2,5-dioxo-pyrrolidin-1-yl)-propyl]-3-methoxy-benzyl}-amino)-3-(2,3-dihydro-benzofuran-5-yl)-propionic acid]
  IC50: 51 nM

## COc1cc(CN(CC(C)C)C(CC(=O)O)c2ccc3c(c2)CCO3)ccc1CCCN1C(=O)CCC1=O (stereo not drawn) [Example 141, 3-(2,3-Dihydro-benzofuran-5-yl)-3-({4-[3-(2,5-dioxo-pyrrolidin-1-yl)-propyl]-3-methoxy-benzyl}-isobutyl-amino)-propionic acid]
  IC50: 43 nM
